Entries after “also recorded” stand apart in the source; their conditions may differ.

Results on five compounds are retold here after patent EP0302934A1, “ALICYCLIC DICARBOXYLIC ACID DERIVATIVES AND MUSCLE RELAXANTS CONTAINING THEM AS EFFECTIVE INGREDIENTS” (NIPPON ZEON CO., LTD., priority 1987, dated 1988).

One data set has as its system ICR male mice. Description: Horizontal wire test. The note with it: maximum number of fallen mice out of 6 per group; 100 mg/kg-body weight orally, suspended in 0.4% aqueous carboxymethyl cellulose. The class given is in vivo. From the text:
Thereafter, at constant intervals of time, the mice were suspended by their forepaws on the metallic wire held horizontally, and the number of animals failing to hang was counted.

In the next data set the test system is Wister male rats. The data set can be described thus: Test method using anaemic decerebrate rigidity animals. The note with it: 3 mg/kg body weight intravenously in polyethylene glycol; three rats per group; visually followed over 60 minutes. The class given is in vivo. How it is done:
Each of Compound 1 and Compound 3 obtained in the synthesis examples was dissolved into 100% polyethylene glycol (molecular weight ca. 400) to prepare test drugs having a concentration of 0.3%. According to the method of Fukuda et al. (Fukuda, H., Ito, T., Hashimoto, S. and Kudo, Y., Japan. J. Pharmacol., (1974) 24; 810), the rigidity was induced in Wister male rats (body weight 250 to 350 g). Thus, by ligating both the common carotid arteries and coagulating the basilarartery by means of high frequency wave, the rigidity was induced in the fore legs of the animals. Using three animals as one group, each test drug was intravenously administered to the animals so that the amount of active ingredient came to 3 mg/kg body weight. Thereafter, whether the rigidity in the fore legs of the rat was relaxed or not was visually followed over a continuous 60 minutes.

A further data set can be described thus: in vivo. Details: species or system mice. The note with it: mouse, po. How it is done:
ICR male mice (body weight 20 to 30 g, 10 animals per one group) were used for the test.
A test drug was prepared by suspending Compound 3 into 0.4% aqueous solution of carboxymethyl cellulose, and it was orally administered.
Thereafter, the state of the animals was visually observed for 5 days. As the result, LD50 (mg/kg) was 1,000 mg/kg or more.

Regarding “2-(3',5'-Dichlorophenylcarbamoyl)-3(6)-methyl-4-cyclohexenecarboxylic Acid [Compound 5]”, the “No. of fallen cases” value in the data set with ICR male mice is 3. Turning to `CC1C=CCC2C(=O)N(c3cc(Cl)cc(Cl)c3)C(=O)C12` (centres unmarked) [Compound 1, N-(3^1,5^1-Dichlorophenyl)-3-methyl-4-cyclohexene-l,2-dicarboxylic Acid Imide], the “No. of fallen cases” value with ICR male mice is recorded as 5. Besides, the “rigidity in the fore legs relaxed or not” value in the data set with Wister male rats is “the rigidity disappeared”. Take `CC1C=CC(C)C2C(=O)N(c3cc(Cl)cc(Cl)c3)C(=O)C12` (centres unmarked) [Compound 3, N-(3',5'-Dichlorophenyl)-3,6-dimethyl-4-cyclohexene-1,2-dicarboxylic acid imide]: the “No. of fallen cases” value with ICR male mice worked out at 3. In the data set on Wister male rats, the “rigidity in the fore legs relaxed or not” value is given as “the rigidity disappeared; also recorded: particularly marked rigidity - eliminating effect”. For the same compound, the LD50 at 120 h in the data set “in vivo” was ≥ 1000 mg/kg. Turning to `CC1CCC(C)C2C(=O)N(c3cc(Cl)cc(Cl)c3)C(=O)C12` (centres unmarked) [Compound 4, N-(3' ,5'-Dichlorophenyl)-3,6-dimethyicyclo-hexane-l,2-dicarboxylic acid imide], the “No. of fallen cases” value with ICR male mice is recorded as 3. The same measure, in the same setting: as for `CC1C=CC(C)C(C(=O)Nc2cc(Cl)cc(Cl)c2)C1C(=O)[O-].[Na+]` (centres unmarked) [Compound 7, Sodium 2-(3',5'-Dichlorophenyl-carbamoyl)-3,6-dimethyl-4-cyclohexenecarboxylate], the figure is 3.

Usually LD50 stands for the dose expected to kill half of the subjects tested.
